This is an account of results in patent US10172832B2, “Amide derivatives of N-urea substituted amino acids as formyl peptide receptor like-1 (FPRL-1) receptor modulators” (Allergan, Inc., priority 2011, dated 2019).

For the assay, the target named is T1, FPRL-1 (Homo sapiens, UniProt P25090).
T1 construct: expressed in transfected cells
T1 sequence (P25090 1-351): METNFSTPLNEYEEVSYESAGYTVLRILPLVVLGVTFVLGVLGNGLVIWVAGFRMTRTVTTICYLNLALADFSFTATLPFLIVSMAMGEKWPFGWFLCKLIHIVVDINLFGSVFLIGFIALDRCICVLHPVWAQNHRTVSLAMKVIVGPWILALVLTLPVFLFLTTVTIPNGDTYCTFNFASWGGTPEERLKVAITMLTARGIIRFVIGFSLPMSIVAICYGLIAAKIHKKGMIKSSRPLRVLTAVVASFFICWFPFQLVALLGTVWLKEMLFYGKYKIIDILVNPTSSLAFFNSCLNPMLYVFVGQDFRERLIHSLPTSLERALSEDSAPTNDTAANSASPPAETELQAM
The experiment in a line: compound-induced calcium activity on FLIPR Tetra in CHO-Gα16 cells stably expressing FPRL1. It counts as cell-based. As to conditions: for FPRL-1 Ga16-CHO (Rel. eff.): relative efficacy; for EC50: tested 0.61 to 10,000 nM, read-out: FPRL-1 Ga16-CHO EC50. A digest of the protocol:
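CHO-Gα16 cells stably expressing FPRL1, plated at 18,000 cells/well the day before, were read for compound-induced calcium response on FLIPR Tetra.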

Molecules are shown by their SMILES.

For the compound `CC(C)CC(C)(NC(=O)Nc1ccc(Br)cc1)C(=O)NCC(=O)OC(C)(C)C` (stereo not drawn) [Compound 55, tert-butyl {[2-{[(4-bromophenyl)carbamoyl]amino}-2,4-dimethylpentanoyl]amino}acetate], the “FPRL-1 Ga16-CHO (Rel. eff.)” value is recorded as “(0.98)” and the EC50 worked out at 58 nM.

For the compound `CCC[C@H](NC(=O)Nc1ccc(Br)cc1)C(=O)NCC(C)=O` [(2S)-2-{[(4-bromophenyl)carbamoyl]amino}-N-(2-oxopropyl)pentanamide], the “FPRL-1 Ga16-CHO (Rel. eff.)” value is on record as “(1.05)” and the EC50 worked out at 35 nM.

For `CC(C)C[C@H](NC(=O)Nc1ccc(Br)cc1)C(=O)N[C@H](C(N)=O)C(C)C` [Compound 46], the “FPRL-1 Ga16-CHO (Rel. eff.)” value is recorded as “(1.03)” and the concentration for a half-maximal effect (EC50) worked out at 1.3 nM.

In the case of `CSc1ccc(NC(=O)N[C@@H](CC(C)C)C(=O)NCC(=O)O)cc1` [Compound 70, {[(2S)-4-methyl-2-({[4-(methylsulfanyl)phenyl]carbamoyl}amino)pentanoyl]amino}acetic acid], the “FPRL-1 Ga16-CHO (Rel. eff.)” value is “(1.05)” and the EC50 worked out at 2.95 nM.

Turning to `O=C(O)CNC(=O)C(Cc1c[nH]cn1)NC(=O)Nc1ccc(Br)cc1` (stereo not drawn) [Compound 85, {[2-{[(4-bromophenyl)carbamoyl]amino}-3-(1H-imidazol-4-yl)propanoyl]amino}acetic acid], the “FPRL-1 Ga16-CHO (Rel. eff.)” value is “(0.95)” and the EC50 is 10 nM.

`CC(C)C[C@H](NC(=O)Nc1ccc(Br)cc1)C(=O)NCC(N)=O` [Compound 32, (2S)-N-(2-amino-2-oxoethyl)-2-{[(4-bromophenyl)carbamoyl]amino}-4-methylpentanamide]: the “FPRL-1 Ga16-CHO (Rel. eff.)” value is listed as “(1.08)” and the EC50 came to 1.05 nM.

Take `CCC[C@H](NC(=O)Nc1ccc(Br)cc1)C(=O)NCC(N)=O` [Compound 30, (2S)-N-(2-amino-2-oxoethyl)-2-{[(4-bromophenyl)carbamoyl]amino}-pentanamide]: the “FPRL-1 Ga16-CHO (Rel. eff.)” value was “(0.97)” and the 50% effective concentration (EC50) was determined as 2.5 nM.

For `CS(=O)(=O)CC[C@H](NC(=O)Nc1ccc(Br)cc1)C(=O)NCC(=O)O` [Compound 83, {[(2S)-2-{[(4-bromophenyl)carbamoyl]amino}-4-(methylsulfonyl)butanoyl]amino}acetic acid], the “FPRL-1 Ga16-CHO (Rel. eff.)” value is on record as “(1.01)” and the EC50 was determined as 247 nM.

Turning to `CC(=O)CNC(=O)[C@H](CC(C)C)NC(=O)Nc1ccc(Br)cc1F` [Compound 35, (2S)-2-{[(4-bromo-2-fluorophenyl)carbamoyl]amino}-4-methyl-N-(2-oxopropyl)pentanamide], the “FPRL-1 Ga16-CHO (Rel. eff.)” value is recorded as “(0.99)” and the EC50 was 20 nM.

Regarding `CC(C)C[C@@H](NC(=O)Nc1ccc(Br)cc1)C(=O)NC(C)(C)C(=O)O` [Compound 87, 2-{[(2R)-2-{[(4-bromophenyl)carbamoyl]amino}-4-methylpentanoyl]amino}-2-methylpropanoic acid], the “FPRL-1 Ga16-CHO (Rel. eff.)” value is “(0.74)” and the half-maximal effective concentration (EC50) was 490 nM.

Consider `CC(C)(NC(=O)Nc1ccc(Br)cc1)C(=O)NCC(=O)O` [Compound 60, {[2-{[(4-bromophenyl)carbamoyl]amino}-2-methylpropanoyl]amino}acetic acid], for which the “FPRL-1 Ga16-CHO (Rel. eff.)” value is reported as “(0.99)” and the EC50 turned out to be 480 nM.

Take `CSCC[C@H](NC(=O)Nc1ccc(Br)cc1)C(=O)NCC(=O)O` [Compound 82, {[(2S)-2-{[(4-bromophenyl)carbamoyl]amino}-4-(methylsulfanyl)butanoyl]amino}acetic acid]: the “FPRL-1 Ga16-CHO (Rel. eff.)” value was “(1.03)” and the EC50 amounted to 7 nM.

As to `CC(C)C[C@H](NC(=O)Nc1ccc(S(C)(=O)=O)cc1)C(=O)NCC(=O)OC(C)(C)C` [Compound 76, tert-butyl {[(2S)-4-methyl-2-({[4-(methylsulfonyl)phenyl]carbamoyl}amino)pentanoyl]amino}acetate], the “FPRL-1 Ga16-CHO (Rel. eff.)” value is listed as “(0.90)” and the concentration giving a half-maximal response (EC50) was 1080 nM.

Take `CC[C@H](C)[C@H](NC(=O)Nc1ccc(Br)cc1)C(=O)NCCO` [Compound 14, (2S,3S)-2-{[(4-bromophenyl)carbamoyl]amino}-N-(2-hydroxyethyl)-3-methylpentanamide]: the “FPRL-1 Ga16-CHO (Rel. eff.)” value is “(1.00)” and the EC50 turned out to be 24 nM.

As to `CC[C@H](C)[C@H](NC(=O)Nc1ccc(Br)cc1)C(=O)NCC(N)=O` [Compound 28, (2S,3S)—N-(2-amino-2-oxoethyl)-2-{[(4-bromophenyl)carbamoyl]amino}-3-methylpentanamide], the “FPRL-1 Ga16-CHO (Rel. eff.)” value is recorded as “(0.81)” and the EC50 worked out at 4.6 nM.

Consider `CC(C)C[C@H](NC(=O)Nc1ccc(Br)cc1)C(=O)N[C@@H](C)C(=O)O` [Compound 43, (2S)-2-{[(2S)-2-{[(4-bromophenyl)carbamoyl]amino}-4-methylpentanoyl]amino}propanoic acid], for which the “FPRL-1 Ga16-CHO (Rel. eff.)” value is “(1.05)” and the EC50 was found to be 11 nM.

As to `CC(=O)CNC(=O)[C@H](CC(C)C)NC(=O)Nc1ccc(Br)cc1` [Compound 27, (2S)-2-{[(4-bromophenyl)carbamoyl]amino}-4-methyl-N-(2-oxopropyl)pentanamide], the “FPRL-1 Ga16-CHO (Rel. eff.)” value was “(0.82)” and the EC50 came out at 4.7 nM.

For the compound `CC(C)C[C@H](NC(=O)Nc1ccc(C(F)(F)F)cc1)C(=O)NCC(=O)O` [Compound 63, {[(2S)-4-methyl-2-({[4-(trifluoromethyl)phenyl]carbamoyl}amino)pentanoyl]amino}acetic acid], the “FPRL-1 Ga16-CHO (Rel. eff.)” value is “(0.99)” and the EC50 was determined as 1.8 nM.

As for `NC(=O)CC(NC(=O)Nc1ccc(Br)cc1)C(=O)NCC(=O)O` (stereo not drawn) [[(4-amino-2-{[(4-bromophenyl)carbamoyl]amino}-4-oxobutanoyl)amino]acetic acid], the “FPRL-1 Ga16-CHO (Rel. eff.)” value is “(0.81)” and the concentration giving a half-maximal response (EC50) was determined as 2940 nM.

For the compound `CCC[C@H](NC(=O)Nc1ccc(Br)cc1F)C(=O)NCC(N)=O` [Compound 31, (2S)-N-(2-amino-2-oxoethyl)-2-{[(4-bromo-2-fluorophenyl]carbamoyl}amino)pentanamide], the “FPRL-1 Ga16-CHO (Rel. eff.)” value is on record as “(0.98)” and the half-maximal effective concentration (EC50) came out at 5.2 nM.

`CC(C)C[C@H](NC(=O)Nc1ccc(SC(F)(F)F)cc1)C(=O)NCC(=O)O` [Compound 72, ({(2S)-4-methyl-2-[({4-[(trifluoromethyl)sulfanyl]phenyl}carbamoyl)amino]pentanoyl}amino)acetic acid]: the “FPRL-1 Ga16-CHO (Rel. eff.)” value is given as “(1.07)” and the EC50 is 560 nM.

By EC50 is commonly meant the midpoint of the concentration-response curve.
